Experimental data as given in patent US12648944B2, “Masitinib for the treatment of castrate-resistant prostate cancer” (AB SCIENCE, priority 2021, dated 2026).

System: first line metastatic castrate-resistant prostate cancer (mCRPC)
Assay: Phase 3 randomized double blind placebo-controlled study of masitinib in combination with docetaxel (+ prednisone), progression-free survival
Type: in vivo, human
Settings: for Median progression-free survival (PFS): masitinib 6 mg/kg/day + docetaxel + prednisone; for Hazard Ratio / Risk Benefit: masitinib vs placebo, each + docetaxel + prednisone
Description: A prospective, multicenter, randomized, double blind, placebo-controlled, 2-parallel groups, phase 3 study was conducted to assess the efficacy and safety of masitinib in combination with docetaxel as compared to placebo in combination with docetaxel in first line metastatic castrate-resistant prostate cancer (mCRPC).
The objective of the study was to assess the efficacy and safety of masitinib in combination with docetaxel as compared to docetaxel in combination with placebo in first line metastatic castrate-resistant prostate cancer (mCRPC). Efficacy was assessed based on the progression-free survival (PFS), measured in months.
The patients recruited in the study consist of adult males suffering from prostate cancer who progressed to develop castration-resistant prostate cancer (CRPC) after castration treatment (reduction of androgens (e.g., testosterone, dihydrotestosterone (DHT)) by chemical or surgical means). These patients are considered to be patients in the first line metastatic castration-resistant prostate cancer (mCRPC).
The patients recruited in the study were randomized in two groups with a ratio 1:1: • Group 1: masitinib (6 mg/kg/day)+docetaxel (75 mg/m^2 6 cycles—8 or 10 cycles possible)+prednisone according to usual practice; • Group 2: placebo+docetaxel (75 mg/m^2 6 cycles—8 or 10 cycles possible)+prednisone according to usual practice.
Docetaxel was combined with prednisone as usual practice.
Patients were centrally randomized to one of the two treatment groups by IWRS (Interactive Web Response System) according to minimization method.
Inclusion criteria were: • Patient aged≥18 years old, with histologically or cytologically confirmed metastatic castrate-resistant prostate cancer (medical or surgical castration: androgens deprivation by GnRH agonist or antagonist or patient with surgical castration; hormonal castration confirmed biologically (testosterone<0.5 ng/ml) with one of the following criteria: • If surgical castration is done than there is no requirement to perform testosterone test. • Pre-treated with abiraterone with progressed disease documented, OR • With indication for initiating docetaxel administration (e.g., widespread visceral disease or rapidly progressive disease). • Patient with evidence of progressive metastatic disease. Disease progression at trial enrolment is based on progression in at least one variable as described in the Prostate Cancer Clinical Trials Working Group (PCWG2) definition of response and progression for disease manifestations in prostate cancer (Scher et al. J Clin Oncol. 2008; 26:1148-1159):
• Patient with ECOG≤1 • Patient with adequate organ function: […]

[1] = Halabi prognosis score H > 15 at baseline
[2] = Halabi prognosis score H > 16 at baseline
[3] = Halabi prognosis score H > 17 at baseline
[4] = Halabi prognosis score H > 18 at baseline
[5] = Halabi prognosis score H > 19 at baseline
[6] = Halabi prognosis score H > 20 at baseline
[7] = Halabi prognosis score H > 21 at baseline
[8] = Halabi prognosis score H > 22 at baseline
[9] = Halabi prognosis score H > 27 at baseline
[10] = Halabi prognosis score H > 33 at baseline
[11] = Halabi prognosis score H ≤ 15 at baseline
[12] = Halabi prognosis score H ≤ 16 at baseline
[13] = Halabi prognosis score H ≤ 17 at baseline
[14] = Halabi prognosis score H ≤ 18 at baseline
[15] = Halabi prognosis score H ≤ 19 at baseline
[16] = Halabi prognosis score H ≤ 20 at baseline
[17] = Halabi prognosis score H ≤ 21 at baseline
[18] = Halabi prognosis score H ≤ 22 at baseline
[19] = Halabi prognosis score H ≤ 27 at baseline
[20] = Halabi prognosis score H ≤ 33 at baseline
[21] = baseline ALP > 250 IU/L and H > 18
[22] = baseline ALP > 250 IU/L and H > 19
[23] = baseline ALP > 250 IU/L and H > 20
[24] = baseline ALP > 250 IU/L and H > 21
[25] = baseline ALP > 250 IU/L and H > 22
[26] = baseline ALP > 250 IU/L and H ≤ 20
[27] = baseline ALP > 250 IU/L and H ≤ 21
[28] = baseline ALP > 250 IU/L and H ≤ 22
[29] = baseline ALP equal to or lower than 100 IU/L and H equal to or lower than 18
[30] = baseline ALP equal to or lower than 150 IU/L and H equal to or lower than 18
[31] = baseline ALP equal to or lower than 200 IU/L and H equal to or lower than 18
[32] = baseline ALP ≤ 250 IU/L and H < 21
[33] = baseline ALP ≤ 250 IU/L and H < 22
[34] = baseline ALP ≤ 250 IU/L and H > 18
[35] = baseline ALP ≤ 250 IU/L and H > 19
[36] = baseline ALP ≤ 250 IU/L and H > 20
[37] = baseline ALP ≤ 250 IU/L and H > 21
[38] = baseline ALP ≤ 250 IU/L and H > 22
[39] = baseline ALP ≤ 250 IU/L and H ≤ 18
[40] = baseline ALP ≤ 250 IU/L and H ≤ 19
[41] = baseline ALP ≤ 250 IU/L and H ≤ 20

With Cc1ccc(NC(=O)c2ccc(CN3CCN(C)CC3)cc2)cc1Nc1nc(-c2cccnc2)cs1 [MASITINIB, 4-(4-methylpiperazin-1-ylmethyl)-N-[4-methyl-3-(4-pyridin-3ylthiazol-2-ylamino)phenyl]benzamide] the “Median progression-free survival (PFS)” value [1] was 5.5 months, the “Hazard Ratio” value [1] was 0.99 and the “Risk Benefit” value [1] was 1%. The “Median progression-free survival (PFS)” value [2] was 5.5 months, the “Hazard Ratio” value [2] was 1.00 and the “Risk Benefit” value [2] was 0%. For the same molecule, the “Median progression-free survival (PFS)” value [3] was 5.5 months, the “Hazard Ratio” value [3] was 1.00 and the “Risk Benefit” value [3] was 0%. The “Median progression-free survival (PFS)” value [4] was 5.5 months, the “Hazard Ratio” value [4] was 1.00 and the “Risk Benefit” value [4] was 0%. The “Median progression-free survival (PFS)” value [5] was 5.4 months, the “Hazard Ratio” value [5] was 1.00 and the “Risk Benefit” value [5] was 0%. For the same molecule, the “Median progression-free survival (PFS)” value [6] was 4.9 months, the “Hazard Ratio” value [6] was 1.04 and the “Risk Benefit” value [6] was −4%. For the same molecule, the “Median progression-free survival (PFS)” value [7] was 4.9 months, the “Hazard Ratio” value [7] was 1.07 and the “Risk Benefit” value [7] was −7%. The “Median progression-free survival (PFS)” value [8] was 4.9 months, the “Hazard Ratio” value [8] was 1.09 and the “Risk Benefit” value [8] was −9%. For the same molecule, the “Median progression-free survival (PFS)” value [9] was 4.8 months, the “Hazard Ratio” value [9] was 1.20 and the “Risk Benefit” value [9] was −20%. The “Median progression-free survival (PFS)” value [10] was 4.1 months, the “Hazard Ratio” value [10] was 1.34 and the “Risk Benefit” value [10] was −34%. The “Median progression-free survival (PFS)” value [11] was 15 months, the “Hazard Ratio” value [11] was 0.28 and the “Risk Benefit” value [11] was 72%. For the same molecule, the “Median progression-free survival (PFS)” value [12] was 9.0 months, the “Hazard Ratio” value [12] was 0.35 and the “Risk Benefit” value [12] was 65%. For the same molecule, the “Median progression-free survival (PFS)” value [13] was 7.0 months, the “Hazard Ratio” value [13] was 0.49 and the “Risk Benefit” value [13] was 51%. The “Median progression-free survival (PFS)” value [14] was 7.0 months, the “Hazard Ratio” value [14] was 0.54 and the “Risk Benefit” value [14] was 46%. The “Median progression-free survival (PFS)” value [15] was 6.9 months, the “Hazard Ratio” value [15] was 0.69 and the “Risk Benefit” value [15] was 31%. For the same molecule, the “Median progression-free survival (PFS)” value [16] was 7.0 months, the “Hazard Ratio” value [16] was 0.65 and the “Risk Benefit” value [16] was 36%. The “Median progression-free survival (PFS)” value [17] was 7.0 months, the “Hazard Ratio” value [17] was 0.65 and the “Risk Benefit” value [17] was 35%. The “Median progression-free survival (PFS)” value [18] was 6.9 months, the “Hazard Ratio” value [18] was 0.65 and the “Risk Benefit” value [18] was 35%. The “Median progression-free survival (PFS)” value [19] was 6.5 months, the “Hazard Ratio” value [19] was 0.75 and the “Risk Benefit” value [19] was 25%. The “Median progression-free survival (PFS)” value [20] was 6.4 months, the “Hazard Ratio” value [20] was 0.81 and the “Risk Benefit” value [20] was 19%. The “Median progression-free survival (PFS)” value (baseline ALP > 100 IU/L) was 5.4 months, the “Hazard Ratio” value (baseline ALP > 100 IU/L) was 1.02 and the “Median progression-free survival (PFS)” value (baseline ALP > 150 IU/L) was 4.9 months. The “Hazard Ratio” value (baseline ALP > 150 IU/L) was 1.14, the “Median progression-free survival (PFS)” value (baseline ALP > 200 IU/L) was 4.4 months and the “Hazard Ratio” value (baseline ALP > 200 IU/L) was 1.17. The “Median progression-free survival (PFS)” value [21] was 4.3 months, the “Hazard Ratio” value [21] was 1.19 and the “Median progression-free survival (PFS)” value [22] was 4.2 months. The “Hazard Ratio” value [22] was 1.18, the “Median progression-free survival (PFS)” value [23] was 4.2 months and the “Hazard Ratio” value [23] was 1.19. The “Median progression-free survival (PFS)” value [24] was 4.2 months, the “Hazard Ratio” value [24] was 1.19 and the “Median progression-free survival (PFS)” value [25] was 4.2 months. The “Hazard Ratio” value [25] was 1.20, the “Median progression-free survival (PFS)” value (baseline ALP > 250 IU/L and H ≤ 18) was 3.4 months and the “Median progression-free survival (PFS)” value (baseline ALP > 250 IU/L and H ≤ 19) was 9.2 months. The “Median progression-free survival (PFS)” value [26] was 13 months, the “Hazard Ratio” value [26] was 1.78 and the “Median progression-free survival (PFS)” value [27] was 8.3 months. For the same molecule, the “Hazard Ratio” value [27] was 0.99, the “Median progression-free survival (PFS)” value [28] was 8.3 months and the “Hazard Ratio” value [28] was 0.88. The “Median progression-free survival (PFS)” value (baseline ALP > 250 IU/L) was 4.2 months, the “Hazard Ratio” value (baseline ALP > 250 IU/L) was 1.20 and the Hazard Ratio [29] was 0.46. The Risk Benefit [29] was 56%, the Hazard Ratio [30] was 0.46 and the Risk Benefit [30] was 55%. For the same molecule, the Hazard Ratio [31] was “about 0.5”, the Risk Benefit [31] was “about 50%” and the “Median progression-free survival (PFS)” value (baseline ALP ≤ 100 IU/L) was 9.0 months. For the same molecule, the “Hazard Ratio” value (baseline ALP ≤ 100 IU/L) was 0.53, the “Risk Benefit” value (baseline ALP ≤ 100 IU/L) was 47% and the “Risk Benefit” value (baseline ALP ≤ 100 IU/L, listed as masitinib) was 47%. The “Median progression-free survival (PFS)” value (baseline ALP ≤ 150 IU/L) was 6.9 months, the “Hazard Ratio” value (baseline ALP ≤ 150 IU/L) was 0.63 and the “Risk Benefit” value (baseline ALP ≤ 150 IU/L) was 37%. The “Median progression-free survival (PFS)” value (baseline ALP ≤ 200 IU/L) was 6.9 months, the “Hazard Ratio” value (baseline ALP ≤ 200 IU/L) was 0.73 and the “Risk Benefit” value (baseline ALP ≤ 200 IU/L) was 27%. For the same molecule, the “Median progression-free survival (PFS)” value [32] was 7.0 months, the “Hazard Ratio” value [32] was 0.62 and the “Risk Benefit” value [32] was 38%. The “Median progression-free survival (PFS)” value [33] was 6.9 months, the “Hazard Ratio” value [33] was 0.63 and the “Risk Benefit” value [33] was 37%. For the same molecule, the “Median progression-free survival (PFS)” value [34] was 6.2 months, the “Hazard Ratio” value [34] was 0.87 and the “Median progression-free survival (PFS)” value [35] was 6.1 months. The “Hazard Ratio” value [35] was 0.86, the “Median progression-free survival (PFS)” value [36] was 5.8 months and the “Hazard Ratio” value [36] was 0.90. For the same molecule, the “Median progression-free survival (PFS)” value [37] was 5.8 months, the “Hazard Ratio” value [37] was 0.94 and the “Median progression-free survival (PFS)” value [38] was 5.8 months. The “Hazard Ratio” value [38] was 0.97, the “Median progression-free survival (PFS)” value [39] was 7.7 months and the “Hazard Ratio” value [39] was 0.52. For the same molecule, the “Risk Benefit” value [39] was 48%, the “Median progression-free survival (PFS)” value [40] was 6.9 months and the “Hazard Ratio” value [40] was 0.66. For the same molecule, the “Risk Benefit” value [40] was 34%, the “Median progression-free survival (PFS)” value [41] was 7.0 months and the “Hazard Ratio” value [41] was 0.62. The “Risk Benefit” value [41] was 38%, the “Median progression-free survival (PFS)” value (baseline ALP ≤ 250 IU/L) was 6.3 months and the “Hazard Ratio” value (baseline ALP ≤ 250 IU/L) was 0.79. For the same molecule, the “Risk Benefit” value (baseline ALP ≤ 250 IU/L) was 21%.
